According to paper PMC9582434, “Ryanodine receptor-active non-dioxin-like polychlorinated biphenyls cause neurobehavioral deficits in larval zebrafish” (Frontiers in Toxicology, 2022):

Experiment: PCB body burden in larvae at 5 dpf by gas chromatography
Assay type: in vivo, zebrafish
Conditions: for % uptake (measured uptake/theoretical uptake × 100): averaged across 0.1, 1 and 10 µM, larvae at 5 dpf; for larval body burden relative to the other tested PCBs: exposure 6 hpf to 5 dpf
Protocol: PCB body burden was assessed at 5 dpf by pressurized liquid extraction Dionex ASE200 system (Thermo Scientific, Sunnyvale, CA, United States) ([Wu et al., 2015]). Briefly, zebrafish larvae samples (n = 36–51 per sample) were mixed with diatomaceous earth (2 g) and placed in an extraction cell (33 ml) containing Florisil (60–100 mesh, 12 g, Fisher Scientific, Fair Lawn, NJ, United States). PCB 117 (100 ng) was added to each sample as surrogate recovery standard, and the cells were extracted with hexane-acetone (1:1, v/v) at 100°C and 1,500 psi (10 MPa) with preheat equilibration for 6 min, 35% of cell flush volume and 1 static cycle of 5 min. Method blanks containing only Florisil and diatomaceous earth and sample blanks with naïve (unexposed) and/or DMSO-exposed zebrafish larvae were extracted in parallel with each sample set. The extracts were concentrated to approximately 0.75 ml using a Turbo Vap II (Biotage, Charlotte, NC, United States) and transferred to glass tubes. Samples were further cleaned up, as described previously, to remove sulfur and other impurities ([Kania-Korwel et al., 2007]). All samples were spiked with PCB 204 (100 ng) as internal standard (volume corrector) prior to gas chromatographic analysis.
Analysis of PCBs was performed in the splitless mode on an Agilent 7890 gas chromatograph equipped with a ^63Ni micro electron capture detector (µECD) and a SPB-1 capillary column (length, 60 m; inner diameter, 250 μm; and 0.25 µm film thickness; Supelco, St. Louis, MO, United States) ([Wu et al., 2013]). The following temperature program was used based on a published method ([Kania-Korwel et al., 2011]): hold at 80°C for 1 min, 20°C/min to 215°C, then 0.1°C/min to 219.5°C, and 20°C/min to 280°C, then hold at 280°C for 3 min. A constant helium flow rate of 1 ml/min was used for all analyses. The injector and detector temperatures were 250°C and 300°C, respectively. The ^63Ni-μECD used for the PCB analysis was linear up to concentrations of 1,000 ng/ml for all analytes investigated (R ^2 > 0.999). The recovery of PCB 117 was 83 ± 7% (range: 71–97%). A detailed summary of the limits of detection, limits of quantification, and background levels of the analyzed PCBs is presented in Supplementary Table S1.
The neurotoxic potential of the congeners tested in this study were ranked based on the three endpoints measured in this study: RYR binding, behavior, and body burden. Congeners were ranked relative to each other for each individual endpoint from 1 (highest) to 6 (lowest), and then the three scores for each congener averaged to obtain an overall relative ranking for each congener. Ranking for RYR activation was based on EC2X values and their relative comparisons. Behavior ranking represents the total change from control for each congener across all epochs (L1, D1, L2, and D2) and all days (3, 4, and 5 dpf) tested. AUC values were normalized to the appropriate DMSO control (AUC value/DMSO). Each value was then subtracted from 1 to determine the deviation from the control values [1 − (AUC value/DMSO)]. Absolute values were combined for all concentrations of each congener across all time points (epochs and testing days). PCB body burden was ranked as the percentage uptake using the following calculation: (uptake/total PCB) × 100, where, the uptake values were the measured PCB levels in the samples, and the total PCB values were calculated using the exposure concentration (0.1, 1, or 10 μM) and volume (200 μl). The resulting values were averaged across the three assayed concentrations and rounded to the closest integer to obtain the final ranking order.

Compound | % uptake (measured uptake/theoretical uptake × 100) [%] | larval body burden relative to the other tested PCBs
Clc1ccc(-c2ccc(Cl)cc2Cl)cc1 [PCB 28] | 4.5 | 
Clc1ccc(-c2ccc(Cl)c(Cl)c2)c(Cl)c1 [PCB 66] | 5.6 | 
Clc1cccc(-c2c(Cl)ccc(Cl)c2Cl)c1Cl [PCB 84] | 9.2 | 
Clc1ccc(Cl)c(-c2c(Cl)ccc(Cl)c2Cl)c1 [PCB 95, 2,2',3,5',6-pentachlorobiphenyl] | 7.4 | 
Clc1cc(Cl)c(-c2ccc(Cl)c(Cl)c2Cl)cc1Cl [PCB 138] | 13.8 | highest
Clc1cc(Cl)c(-c2cc(Cl)c(Cl)cc2Cl)cc1Cl [PCB 153, 2,2',4,4',5,5'-Hexachlorobiphenyl] | 1.4 | lowest
